Test results: the NIST ThermoML archive (doi:10.1021/acs.jced.5b00428)

Key:
[1] = mn = molality of the nth substance listed, in mol/kg; settings: 100 kPa, Liquid; for viscosity: Capillary tube (Ostwald / Ubbelohde) method; for mass density: Vibrating tube method
[2] = 101 kPa, Liquid, Capillary tube (Ostwald / Ubbelohde) method

CCCCn1cc[n+](C)c1.[Br-] [1-butyl-3-methylimidazolium bromide] + O
[1]
Settings	mass density, m1 = 0.0046 [kg/m3]	mass density, m1 = 0.0141 [kg/m3]	mass density, m1 = 0.0231 [kg/m3]	viscosity, m1 = 0.0046 [mPa·s]	viscosity, m1 = 0.0141 [mPa·s]	viscosity, m1 = 0.0231 [mPa·s]
288.15 K	999.318	999.804	1000.22	1.14	1.146	1.148
293.15 K	998.492	998.891	999.304	1.003	1.008	1.012
298.15 K	997.279	997.685	998.078	0.891	0.895	0.897
303.15 K	995.876	996.322	996.69	0.8	0.8	0.804
308.15 K	994.252	994.678	995.112	0.721	0.722	0.725
313.15 K	992.415	992.871	993.178	0.654	0.656	0.657

O [water]
[2]
Settings	viscosity [mPa·s]
288.15 K	1.138
293.15 K	1.001
298.15 K	0.89
303.15 K	0.797
308.15 K	0.719
313.15 K	0.653

O [water] + CCCCn1cc[n+](C)c1.[Br-]
[1], m2 = 0
Settings	viscosity [mPa·s]
288.15 K	1.138
293.15 K	1.001
298.15 K	0.89
303.15 K	0.797
308.15 K	0.719
313.15 K	0.653
